Experimental data reported in ChEMBL document CHEMBL1127893, “Bisindolylmaleimide inhibitors of protein kinase C. Further conformational restriction of a tertiary amine side chain” (Bioorg Med Chem Lett, 1994).
pIC50: −log10 of the molar value.

What was measured:
Phosphorylase kinase = test: Inhibition of phosphorylase kinase (PhK); type: protein-complex assay
[1] = target: T1, Protein kinase C beta type (Rattus norvegicus, UniProt P68403); test: Inhibition of Protein kinase C beta 1
[2] = target: T1, Protein kinase C beta type; test: Inhibition of Protein kinase C beta
[3] = target: cAMP-dependent protein kinase (PKA) (Homo sapiens, UniProt P22694+P17612+P22612); test: Inhibition of cyclic AMP dependent protein kinase A (PKA); type: protein assay
[4] = target: Protein kinase C alpha type (Rattus norvegicus, UniProt P05696); test: Inhibition of Protein kinase C alpha
[5] = target: T2, Protein kinase C epsilon type (Rattus norvegicus, UniProt P09216); test: Inhibition of Protein kinase C epsilon
T2 sequence (P09216 whole entry): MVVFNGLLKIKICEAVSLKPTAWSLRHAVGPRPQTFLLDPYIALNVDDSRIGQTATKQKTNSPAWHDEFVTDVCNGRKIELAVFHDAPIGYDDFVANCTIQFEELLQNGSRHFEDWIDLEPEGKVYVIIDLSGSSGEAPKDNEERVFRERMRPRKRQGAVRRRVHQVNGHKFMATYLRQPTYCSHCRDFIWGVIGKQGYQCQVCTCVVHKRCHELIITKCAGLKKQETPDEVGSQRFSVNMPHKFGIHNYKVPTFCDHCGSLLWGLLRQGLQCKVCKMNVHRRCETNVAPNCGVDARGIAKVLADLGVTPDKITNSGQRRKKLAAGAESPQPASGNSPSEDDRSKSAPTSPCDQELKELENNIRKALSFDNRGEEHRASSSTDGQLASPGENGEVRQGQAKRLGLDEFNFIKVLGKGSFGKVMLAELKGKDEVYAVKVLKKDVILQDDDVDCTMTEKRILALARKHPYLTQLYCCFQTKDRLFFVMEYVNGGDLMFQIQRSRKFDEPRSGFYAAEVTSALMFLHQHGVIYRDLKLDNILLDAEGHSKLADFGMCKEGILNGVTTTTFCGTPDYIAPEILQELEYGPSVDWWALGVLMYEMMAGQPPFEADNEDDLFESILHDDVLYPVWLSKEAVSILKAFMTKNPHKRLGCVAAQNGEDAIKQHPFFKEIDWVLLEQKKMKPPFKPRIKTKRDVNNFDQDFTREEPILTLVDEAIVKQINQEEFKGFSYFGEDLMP

Protein kinase C (PKC) [6] = test: Inhibition of protein kinase C from rat brain (PKC)
Protein kinase C (PKC) [7] = test: Inhibition of protein kinase C (PKC); type: protein assay
[8] = target: Protein kinase C gamma type (Rattus norvegicus, UniProt P63319); test: Inhibition of Protein kinase C gamma (PKC)

T1 sequence (P68403 whole entry): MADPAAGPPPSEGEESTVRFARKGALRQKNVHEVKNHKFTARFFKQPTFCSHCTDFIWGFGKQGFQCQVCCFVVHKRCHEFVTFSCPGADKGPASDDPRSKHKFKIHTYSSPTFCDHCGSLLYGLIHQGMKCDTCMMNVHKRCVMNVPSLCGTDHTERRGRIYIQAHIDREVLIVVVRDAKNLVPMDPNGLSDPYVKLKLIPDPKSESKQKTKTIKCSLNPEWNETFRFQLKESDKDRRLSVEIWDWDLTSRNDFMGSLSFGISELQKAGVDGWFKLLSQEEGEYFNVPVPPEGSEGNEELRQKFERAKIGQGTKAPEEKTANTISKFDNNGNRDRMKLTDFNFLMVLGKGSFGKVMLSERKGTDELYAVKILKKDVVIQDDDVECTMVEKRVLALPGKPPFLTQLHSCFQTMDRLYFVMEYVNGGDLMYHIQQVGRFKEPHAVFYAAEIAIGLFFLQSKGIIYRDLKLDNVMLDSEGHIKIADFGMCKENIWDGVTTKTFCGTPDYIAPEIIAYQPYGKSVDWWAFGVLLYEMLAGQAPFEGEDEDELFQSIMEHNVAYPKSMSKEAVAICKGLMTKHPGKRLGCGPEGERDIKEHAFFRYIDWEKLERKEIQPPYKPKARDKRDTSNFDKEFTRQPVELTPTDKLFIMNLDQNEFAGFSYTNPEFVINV

SMILES	pIC50 (Phosphorylase kinase)	pIC50 [1]	pIC50 [2]	IC50 [3] [nM]	pIC50 [4]	pIC50 [5]	IC50 (Protein kinase C (PKC) [6]) [nM]	IC50 (Protein kinase C (PKC) [7]) [nM]	pIC50 [8]
CN1C[C@@H]2Cn3c(c(C4=C(c5cn(C)c6ccccc56)C(=O)NC4=O)c4ccccc43)C[C@H]2C1.Cl (stereo in doubt; form 1)	5.77	8.28	8.17	2800	8.55	7.32	6.8	5	8.27
CN1C[C@@H]2Cn3c(c(C4=C(c5cn(C)c6ccccc56)C(=O)NC4=O)c4ccccc43)C[C@H]2C1.Cl (stereo in doubt; form 2)	5.42			5500				8	
CN(C)C[C@H]1CCn2c(c(C3=C(c4cn(C)c5ccccc45)C(=O)NC3=O)c3ccccc32)C1 [RO-320432]	4.81	7.55	7.52	223375	8.06	6.98	21		7.44
